MIC and Mean survival data for 29 molecules are collected here from ChEMBL document CHEMBL1151029, “Structure-activity relationships of sulfur-containing triazole antifungals” (1995).

SMILES strings stand for the structures. Converted amounts (≈) assume the structure as drawn.

Format in all cases: functional
One assay has as its system Candida albicans. Put plainly: In vitro antifungal activity against Candida albicans KB-8.
A short description of assay [1]: Mean survival days evaluated in vivo for prophylactic efficiency against murine systemic candidiasis at a dose of 10 mg/kg.
The subject of another assay is Aspergillus fumigatus. Nature of the assay: In vitro antifungal activity against Aspergillus fumigatus MTU6001.
Assay [2] can be described thus: Mean survival days evaluated in vivo for prophylactic efficiency against murine systemic aspergillosis at a dose of 50 mg/kg.
Another assay deals with Mus musculus. Nature of the assay: Mean survival days evaluated in vivo for prophylactic efficiency against murine systemic aspergillosis at a dose of 100 mg/kg.

On to `C[C@@H](SCCCCCCO)[C@](O)(Cn1cncn1)c1ccc(F)cc1F`, for which the MIC is ≤ 0.013 µg/mL against Candida albicans and 0.78 µg/mL (≈ 2.02 µM) against Aspergillus fumigatus. In addition, the Mean survival in assay [1] and in assay [2] was 2.8 days each time.

With `CCCCCCCS(=O)(=O)[C@H](C)[C@](O)(Cn1cncn1)c1ccc(F)cc1F`, the figures for the MIC in the assay with Candida albicans and with Aspergillus fumigatus were ≤ 0.013 µg/mL and 6.25 µg/mL (≈ 15 µM), respectively. Also, the Mean survival is 0.9 days in assay [1] and 1.1 days in assay [2].

As to `CCCCCCCCCCCS[C@H](C)[C@](O)(Cn1cncn1)c1ccc(F)cc1F`, the figures for the MIC against Candida albicans and with Aspergillus fumigatus were ≤ 0.013 µg/mL and 25 µg/mL (≈ 56.9 µM), respectively. The Mean survival in assay [1] stood at 5.8 days; in assay [2], 1.6 days.

On to `C[C@@H](SCCCCCO)[C@](O)(Cn1cncn1)c1ccc(F)cc1F`, for which the MIC in the assay with Candida albicans was determined as 0.025 µg/mL (≈ 0.0673 µM); against Aspergillus fumigatus, 0.78 µg/mL (≈ 2.1 µM). The values for the Mean survival in assay [1] and in assay [2] were 9.8 days and 10 days, respectively.

In the case of `CCCCS(=O)(=O)[C@H](C)[C@](O)(Cn1cncn1)c1ccc(F)cc1F`, the MIC against Candida albicans amounted to 0.2 µg/mL (≈ 0.536 µM); against Aspergillus fumigatus, 12.5 µg/mL (≈ 33.5 µM). Besides, the values for the Mean survival in assay [1] and in assay [2] were 7.6 days and 4.1 days, respectively.

On to `C[C@H]([C@](O)(Cn1cncn1)c1ccc(F)cc1F)S(C)(=O)=O` [GENACONAZOLE], for which the results for the MIC in the assay on Candida albicans and in the assay on Aspergillus fumigatus were 0.2 µg/mL (≈ 0.604 µM) and 12.5 µg/mL (≈ 37.7 µM), respectively. The Mean survival in assay [1] and in assay [2] was 10 days throughout.

For `C[C@H]([C@](O)(Cn1cncn1)c1ccc(F)cc1F)S(=O)(=O)CCCCCCCO`, the MIC with Candida albicans stood at 0.39 µg/mL (≈ 0.904 µM); against Aspergillus fumigatus it was 25 µg/mL (≈ 57.9 µM). Besides, the Mean survival in assay [1] was 1 days; in assay [2], 1.2 days.

Regarding `CCS[C@H](C)[C@](O)(Cn1cncn1)c1ccc(F)cc1F`, the MIC in the assay with Candida albicans came to 0.025 µg/mL (≈ 0.0798 µM); with Aspergillus fumigatus, 1.56 µg/mL (≈ 4.98 µM). For the same molecule, the Mean survival was 10 days in assay [1] and 9.8 days in assay [2].

For the molecule `C[C@@H](SCCCCCCCO)[C@](O)(Cn1cncn1)c1ccc(F)cc1F`, the MIC against Candida albicans is ≤ 0.013 µg/mL; against Aspergillus fumigatus, 0.78 µg/mL (≈ 1.95 µM). For the same molecule, the Mean survival in assay [1] is 10 days; in assay [2], 9.7 days.

As for `CCCS(=O)(=O)[C@H](C)[C@](O)(Cn1cncn1)c1ccc(F)cc1F`, the MIC against Candida albicans came out at 0.2 µg/mL (≈ 0.556 µM); against Aspergillus fumigatus it was 6.25 µg/mL (≈ 17.4 µM). Further, the figures for the Mean survival in assay [1] and in assay [2] were 8.3 days and 10 days, respectively.

With `CCCCCCCCS[C@H](C)[C@](O)(Cn1cncn1)c1ccc(F)cc1F`, the minimal inhibitory concentration (MIC) was ≤ 0.013 µg/mL in the assay with Candida albicans and 0.39 µg/mL (≈ 0.981 µM) in the assay with Aspergillus fumigatus. Also, the values for the Mean survival in assay [1] and in assay [2] were 8.6 days and 7.2 days, respectively.

For `CCCCCCCCS(=O)(=O)[C@H](C)[C@](O)(Cn1cncn1)c1ccc(F)cc1F`, the MIC with Candida albicans is ≤ 0.013 µg/mL; against Aspergillus fumigatus, 3.13 µg/mL (≈ 7.29 µM). For the same molecule, the Mean survival turned out to be 1.3 days in assay [1] and 1.6 days in assay [2].

With `C[C@H]([C@](O)(Cn1cncn1)c1ccc(F)cc1F)S(=O)(=O)CCCCCCO`, the values for the MIC against Candida albicans and with Aspergillus fumigatus were 0.39 µg/mL (≈ 0.934 µM) and 100 µg/mL (≈ 240 µM), respectively. For the same molecule, the Mean survival in assay [1] was 1.4 days; in assay [2] it was 3.1 days.

Take `CCCCS[C@H](C)[C@](O)(Cn1cncn1)c1ccc(F)cc1F`: the MIC against Candida albicans was ≤ 0.013 µg/mL; with Aspergillus fumigatus it was 0.78 µg/mL (≈ 2.28 µM). The Mean survival in assay [1] came out at 9.9 days; in assay [2] it was 2.5 days.

Consider `CCCCCCCCCCS[C@H](C)[C@](O)(Cn1cncn1)c1ccc(F)cc1F`, for which the MIC is ≤ 0.013 µg/mL in the assay with Candida albicans and 0.78 µg/mL (≈ 1.83 µM) in the assay with Aspergillus fumigatus. In addition, the Mean survival in assay [1] was 9.1 days; in assay [2], 8 days.

Turning to `CCCCCCS[C@H](C)[C@](O)(Cn1cncn1)c1ccc(F)cc1F`, the values for the MIC against Candida albicans and in the assay on Aspergillus fumigatus were ≤ 0.013 µg/mL and 0.39 µg/mL (≈ 1.06 µM), respectively. The values for the Mean survival in assay [1] and in assay [2] were 9.2 days and 6.8 days, respectively.

As for `CCCCCCCCCS[C@H](C)[C@](O)(Cn1cncn1)c1ccc(F)cc1F`, the MIC with Candida albicans is ≤ 0.013 µg/mL; against Aspergillus fumigatus it was 3.13 µg/mL (≈ 7.61 µM). In addition, the Mean survival in assay [1] is 5 days; in assay [2], 1.8 days.

Turning to `C[C@@H](SCCCCO)[C@](O)(Cn1cncn1)c1ccc(F)cc1F`, the MIC in the assay on Candida albicans was determined as 0.2 µg/mL (≈ 0.56 µM); against Aspergillus fumigatus, 6.25 µg/mL (≈ 17.5 µM). For the same molecule, the Mean survival is 2.5 days in assay [1] and 3.2 days in assay [2].

Regarding `CCCCCCCCCCCS(=O)(=O)[C@H](C)[C@](O)(Cn1cncn1)c1ccc(F)cc1F`, the figures for the MIC against Candida albicans and with Aspergillus fumigatus were ≤ 0.013 µg/mL and 3.13 µg/mL (≈ 6.64 µM), respectively. Further, the Mean survival came to 1.1 days in assay [1] and 1.6 days in assay [2].

`C[C@@H](SCCCCCCCCO)[C@](O)(Cn1cncn1)c1ccc(F)cc1F`: the values for the MIC with Candida albicans and against Aspergillus fumigatus were ≤ 0.013 µg/mL and ≤ 0.2 µg/mL, respectively. The values for the Mean survival in assay [1] and in assay [2] were 4.3 days and 3.5 days, respectively.

Regarding `CCCCCCCS[C@H](C)[C@](O)(Cn1cncn1)c1ccc(F)cc1F`, the MIC in the assay with Candida albicans is ≤ 0.013 µg/mL; with Aspergillus fumigatus, ≤ 0.2 µg/mL. The Mean survival was 10 days in assay [1] and 2.2 days in assay [2].

Consider `CCCCCS[C@H](C)[C@](O)(Cn1cncn1)c1ccc(F)cc1F`, for which the MIC in the assay with Candida albicans is ≤ 0.013 µg/mL; against Aspergillus fumigatus, 0.78 µg/mL (≈ 2.19 µM). Moreover, the Mean survival was 9.9 days in assay [1] and 2.5 days in assay [2].

For the molecule `CCCCCCS(=O)(=O)[C@H](C)[C@](O)(Cn1cncn1)c1ccc(F)cc1F`, the results for the MIC in the assay on Candida albicans and against Aspergillus fumigatus were 0.1 µg/mL (≈ 0.249 µM) and 12.5 µg/mL (≈ 31.1 µM), respectively. In addition, the Mean survival in assay [1] was determined as 2.6 days; in assay [2], 1.6 days.

On to `CCCCCS(=O)(=O)[C@H](C)[C@](O)(Cn1cncn1)c1ccc(F)cc1F`, for which the MIC came out at 0.2 µg/mL (≈ 0.516 µM) against Candida albicans and 25 µg/mL (≈ 64.5 µM) with Aspergillus fumigatus. Moreover, the Mean survival in assay [1] came out at 0.4 days; in assay [2] it was 3.6 days.

As to `CCCCCCCCCS(=O)(=O)[C@H](C)[C@](O)(Cn1cncn1)c1ccc(F)cc1F`, the MIC with Candida albicans was ≤ 0.013 µg/mL; with Aspergillus fumigatus, 0.78 µg/mL (≈ 1.76 µM). Further, the Mean survival in assay [1] worked out at 0.6 days; in assay [2] it was 1 days.

With `OC(Cn1cncn1)(Cn1cncn1)c1ccc(F)cc1F` [FLUCONAZOLE], the MIC against Candida albicans came to 0.78 µg/mL (≈ 2.55 µM); against Aspergillus fumigatus, 400 µg/mL (≈ 1310 µM). The Mean survival in assay [1] was 10 days; with Mus musculus, 2.8 days.

Take `C[C@H]([C@](O)(Cn1cncn1)c1ccc(F)cc1F)S(=O)(=O)CCCCCCCCO`: the MIC against Candida albicans stood at 0.1 µg/mL (≈ 0.224 µM); against Aspergillus fumigatus, 6.25 µg/mL (≈ 14 µM). The Mean survival in assay [1] came to 0.5 days; in assay [2] it was 3 days.

With `CCCS[C@H](C)[C@](O)(Cn1cncn1)c1ccc(F)cc1F`, the MIC was found to be 0.1 µg/mL (≈ 0.305 µM) against Candida albicans and 12.5 µg/mL (≈ 38.2 µM) in the assay with Aspergillus fumigatus. In addition, the Mean survival in assay [1] was found to be 4.4 days; in assay [2] it was 1 days.

On to `CCCCCCCCCCS(=O)(=O)[C@H](C)[C@](O)(Cn1cncn1)c1ccc(F)cc1F`, for which the figures for the MIC against Candida albicans and with Aspergillus fumigatus were ≤ 0.013 µg/mL and < 0.2 µg/mL, respectively. Besides, the Mean survival in assay [1] was determined as 3.9 days; in assay [2], 1.5 days.
